According to ChEMBL document CHEMBL3507680, “University of Dundee, Gates Library screen for HepG2 cell viability”:

Test: Human HepG2 cell viability assay in 384 well format
Format: toxicity, cell-based
Design: dose 125 nL, time 70.5 hour; concentration not given beside the values
Conditions: HepG2 cells, read-out: Inhibition

| SMILES | cytotoxicity at 70.5 h |
| --- | --- |
| CN1CCN(c2ccccc2CNC(=O)CSC(F)(F)F)CC1 | -6.98% |
| O=C(c1c[nH]nn1)N1CCCC1C1CCCCC1 (stereo unspecified) | -8.52% |
| CCc1nnsc1C(=O)NCCc1nnc2n1CCC2 | -7.69% |
| COC1CCN(c2ccc(NC(=O)C3CC3)cc2C(F)(F)F)CC1 | -4.49% |
| N#CCCN(Cc1cccnc1)C(=O)c1cc(Cl)c[nH]1 | -7.86% |
| Cc1cnn(CC(C)NCc2ccc(C#N)cc2F)c1 (stereo unspecified) | -4.59% |
| CC(C)N(C(=O)Cn1nnnc1CCc1ccccc1)C(C)C | 10.7% |
| O=C(Nc1nncs1)C1CSCN1C(=O)C1CCCC1 (stereo unspecified) | -3.88% |
| Brc1csc(-c2noc(C3COCCO3)n2)c1 (stereo unspecified) | 0.61% |
| Cc1ccc(S(=O)(=O)Nc2ccc(C)c(C(=O)O)c2)s1 | -0.348% |
| COCCNC(=O)N1CCSC2(CCCCC2)C1 | -4.21% |
| Cc1ccc(N2CCC(Nc3ccc4nnc(C)n4n3)CC2)nc1 | -1.55% |
| CC(C)(C)c1nc(CN(Cc2ccccc2Cl)C2CCCC2)no1 | -2.25% |
| CCc1cc(N2CCC(Nc3ccc4nnc(C)n4n3)CC2)ncn1 | 2.09% |
| O=C(c1cc[nH]n1)N1CCc2cc(Br)sc2C1 | 15.1% |
| O=S(=O)(Cc1ccccc1)CC(O)Cn1cccn1 (stereo unspecified) | -2.14% |
| CC(=O)NCCNC(=O)Nc1cc(C(C)(C)C)sc1C#N | -1.29% |
| O=C(c1ccc(=O)[nH]n1)N1CCCC1C1CCCC1 (stereo unspecified) | -0.243% |
| CCc1ncnc(N2CCCC(c3cc(C(N)=O)[nH]n3)C2)c1F (stereo unspecified) | -3.89% |
| CC(C)c1cc(Br)ccc1NC(=O)NC(C)(CO)CO | -5% |
| CCOCCSc1nnc(Cc2ccccc2F)o1 | -0.117% |
| Cc1cnn(CC(C)NCc2cccc(C#N)c2)c1 (stereo unspecified) | 2.17% |
| Cc1cnn(CC(C)NCc2cc(C#N)ccc2F)c1 (stereo unspecified) | -5.57% |
| COCCOCCSc1nnc(Cc2ccccc2F)o1 | -4.09% |
| COc1ccc(C(C)NCc2ccnn2C)cc1Cn1cccn1 (stereo unspecified) | -6.58% |

| SMILES | cytotoxicity at 70.5 h |
| --- | --- |
| CN1CCOC(CNCC(=O)NCCC2=CCCCC2)C1 (stereo unspecified) | 4.71% |
| COc1ccccc1CCN(C)C(C)c1nc(-c2cccnc2)no1 (stereo unspecified) | 21.2% |
| CC(c1nc(-c2cccnc2)no1)N(C)CCCOc1ccccc1 (stereo unspecified) | -3.8% |
| COc1ccc(Br)cc1S(=O)(=O)N(C)Cc1ccc(N(C)C)cc1 | -3.08% |
| Cc1cc(NC(=O)C2CCN(c3ncccc3C#N)CC2)no1 | 3.46% |
| CCc1ccc(N2CCC(NS(=O)(=O)N(CC)CC)CC2)cc1 | -5.14% |
| CN1CCOC(CNC(=O)CCCc2ccccc2)C1 (stereo unspecified) | -4.54% |
| CCOC(=O)N(C)CC(=O)NCCc1coc(-c2ccc(C)cc2)n1 | -8.2% |
| CCc1nnc(NC(=O)NCCN(C)C(=O)OC(C)(C)C)s1 | -9.9% |
| CN(Cc1ccccc1CNC(=O)C1CNC(=O)N1)C1CCCCC1 (stereo unspecified) | -4.23% |
| CCOc1ccccc1CN(C)C(C)c1nc(-c2cccnc2)no1 (stereo unspecified) | -3.75% |
| O=C(COC1CCCC1)NCc1ccc(O)c(F)c1 | -3.82% |
| CC1CCN(c2ccc(C(=O)N3CCCC3c3ccc[nH]3)cn2)CC1 (stereo unspecified) | 5.1% |
| CN1CCN(CCOc2ccc(NC(=O)c3ccc[nH]3)cc2)CC1 | -2.18% |
| CCN(C(=O)Cn1cc(NC(=O)C(C)(C)C)cn1)c1ccccc1 | -0.681% |
| CC(Cn1ccnc1)NC(=O)NCCN1CCCCCC1=O (stereo unspecified) | -4.74% |
| CC(=O)N1CCN(C(=O)NC(C)Cn2ccnc2)CC1 (stereo unspecified) | -0.59% |
| Cc1nc(CN2CCN(CC(O)CN3CCOCC3)CC2)oc1C (stereo unspecified) | 8.53% |
| CC(C)c1nc(CN2CCN(C(=O)OC(C)(C)C)C(C)C2)no1 (stereo unspecified) | -2.12% |
| CN(C)c1ncccc1N(C)C(=O)Cn1cc(-c2ccccc2)nn1 | -3.41% |
| CC(c1ccccc1)N(C)CC(=O)NCCC#N (stereo unspecified) | -11.2% |
| COc1cccc(CNC2CCc3ccc(C)cc32)n1 (stereo unspecified) | -9.15% |
| CNC(=O)c1cccc(CN2CCC(N(C)Cc3ncc(C)o3)C2)c1 (stereo unspecified) | 22.2% |
| O=C(NCCNc1ncccn1)NCCSC(F)(F)F | -10.7% |
| O=C(Cc1cccs1)NCC(=O)Nc1cn[nH]c1 | -11.9% |

| SMILES | cytotoxicity at 70.5 h |
| --- | --- |
| CC(Oc1ccc(C(=O)NCCNS(C)(=O)=O)cn1)c1ccccc1 (stereo unspecified) | -8.66% |
| Cc1nc(CN2CCN(c3ccc(SC(C)C)nn3)CC2)cs1 | 11.1% |
| CCC(C)(C)NC(=O)c1ccc(NC(=O)NCc2cc(C)on2)cc1 | -6.36% |
| NS(=O)(=O)CCNC(=O)c1ccc(OCc2ccccc2)nc1 | 20.5% |
| O=C(CCc1ccc(C(F)(F)F)cc1)N1CCCS1(=O)=O | -4.91% |
| O=C(CCc1ccc(OC(F)(F)F)cc1)N1CCCS1(=O)=O | -3.82% |
| Cc1cc(S(=O)(=O)N2CCOCC2C#N)ccc1F (stereo unspecified) | 13.3% |
| CC(Cc1ccc(C(F)(F)F)cc1)C(=O)N1CCCS1(=O)=O (stereo unspecified) | -9.41% |
| CN(C)CCn1ccc(NC(=O)NC(C)(C)c2nccs2)n1 | -12.6% |
| CCc1nc(CC)n(CC(=O)N(C)Cc2ccc(F)cc2)n1 | -4.65% |
| Cc1ccc(S(=O)(=O)N2CCOCC2C#N)cc1Br (stereo unspecified) | -6.92% |
| CC(NC(=O)NCCCO)c1ccc(-c2ccncc2)cc1 (stereo unspecified) | -9.46% |
| OCCN1CCN(Cc2cn(-c3ccccc3)nn2)CC1 | -11.9% |
| CC(C)CN(c1cn[nH]c1)S(=O)(=O)c1cccc(C#N)c1 | -6.94% |
| C=C(C)CN(c1cn[nH]c1)S(=O)(=O)c1cccc(C#N)c1 | -5.38% |
| CC(NCCc1nccn1Cc1ccccc1)c1cccs1 (stereo unspecified) | 13.3% |
| COc1cccc(CNC2CCCOc3cc(C)ccc32)n1 (stereo unspecified) | -9.25% |
| O=C1CCCN1CCCN1CCCCC1Cn1cncn1 (stereo unspecified) | -5.51% |
| Cc1nc(CN2CCCN(CC(=O)N(C)C(C)(C)C#N)CC2)no1 | -10.4% |
| O=C1OCCC1N1CCN(c2cnccn2)CC1 (stereo unspecified) | -8.4% |
| CCCc1nnc(SCC(=O)Nc2cc(C(C)(C)C)nn2C)[nH]1 | -13.2% |
| Cc1cc(NC(=O)N2CCN(C)CC2C)n(C(C)(C)C)n1 (stereo unspecified) | -9.8% |
| N#Cc1cc(Cl)ccc1N1CCOC(C(N)=O)C1 (stereo unspecified) | -0.791% |
| CC(C)(C)NC(=O)N1CCN2C(=O)OCC2C1 (stereo unspecified) | -3.52% |
| NC(=O)N1CCCN(C2CCc3ccc(F)cc32)CC1 (stereo unspecified) | -1.61% |

| SMILES | cytotoxicity at 70.5 h |
| --- | --- |
| CN1CCC(O)(CNCc2ccc(F)c(C(F)(F)F)c2)CC1 | 22.4% |
| Fc1ccc(NCc2ccncc2)c(OC(F)F)c1 | -5.76% |
| Cn1nc(C(C)(C)C)cc1NC(=O)CSc1nnc[nH]1 | -4.97% |
| O=C(CN1CCOCC1)N1CCN(C2CCc3ccc(F)cc32)CC1 (stereo unspecified) | -4.68% |
| CCCC(=O)NCc1cccc(C(=O)OC)c1 | -9.06% |
| CS(=O)(=O)NCCNC(=O)NC1(c2ccc(F)cc2)CCCC1 | -9.82% |
| Cn1nc(CC(C)(C)C)cc1NC(=O)c1ccc2[nH]nnc2c1 | 19% |
| COc1cc2nc(NCc3scnc3C)nc(N)c2cc1OC | 8.57% |
| Cc1nonc1NC(=O)C1SCCc2sccc21 (stereo unspecified) | 32.5% |
| CCc1cnc(N2CCN(CC(=O)Nc3c(C)n[nH]c3C)CC2)s1 | -3.55% |
| c1cc(-c2noc(-c3cc(C4CC4)on3)n2)cc(N2CCCCC2)n1 | -7.87% |
| CN(C)CCN1CCC(NC2CSCCc3ccccc32)CC1 (stereo unspecified) | -7.29% |
| OCCOc1ccc(NCc2cc(F)cc3cccnc23)cn1 | -9.9% |
| Cc1nc(N2CCC3(CCOC3)C2)c2cc[nH]c2n1 (stereo unspecified) | 27.9% |
| CCNC(=O)NCc1ccnc(N(C)C)n1 | -5.28% |
| CCN(CC(F)(F)F)C(=O)C1CCCN(Cc2nc(C)c(C)o2)C1 (stereo unspecified) | -1.99% |
| CCCNC(=O)CN1CCN(c2nc(CC)ns2)CC1 | -9.67% |
| CNC(=O)CN1CCC(NC2CSCCc3ccccc32)CC1 (stereo unspecified) | 0.136% |
| OCCOc1ccc(NCc2cccc3[nH]ccc23)cn1 | -3.37% |
| CCc1ccc(C2COCCN2C(=O)Nc2ccc(C(N)=O)c(Cl)c2)o1 (stereo unspecified) | -2.09% |
| O=C(COC1CCCC1)N1CCCN(c2ncccn2)CC1 | -2.52% |
| Cc1ccc(C)c(S(=O)(=O)NC(=O)COc2cccc(C#N)c2)c1 | -2.88% |
| Cc1ccc(S(=O)(=O)NC(=O)COc2cccc(C#N)c2)c(C)c1 | 14.4% |
| CN(CCC(=O)NC1CC1)Cc1ccc(Cl)s1 | -7.03% |
| O=c1[nH]c(CN2CCN(CC(F)(F)F)CC2)nc2ccccc12 | -13.3% |

| SMILES | cytotoxicity at 70.5 h |
| --- | --- |
| O=C(COC1CCCCC1)N1CCN(C(=O)Cc2ccccn2)CC1 | -6.92% |
| COc1cc(C2(C(=O)NCCn3ccnc3)CCCC2)ccc1C | -6.48% |
| CCc1noc(C(C)N2CCN(Cc3cnc(C)cn3)CC2)n1 (stereo unspecified) | 16.3% |
| O=C(NCc1ccccc1CN1CCCCCC1)Nc1nncs1 | -5.79% |
| Cc1ncsc1CNc1ccn(Cc2ccccc2)n1 | 6.63% |
| CCOCCNC(=O)Cc1cccc(I)c1 | 0.854% |
| CN(C)CCNC(=O)Cc1cccc(I)c1 | 18.8% |
| COc1cc(OC)cc(C2CCN(CC(=O)NCC(F)(F)F)C2)c1 (stereo unspecified) | -3.94% |
| NC(=O)CCCNC(=O)Cc1cccc(I)c1 | -1.69% |
| COCc1cccc(C(=O)N2CCN(C3=NCC(C)(C)S3)CC2)c1 | -3.27% |
| CC(=O)CC(C)(C)NC(=O)CCN(C)Cc1ccc(Cl)s1 | -9.29% |
| OCC1CCCCN1Cc1nc(Cc2ccccc2)no1 (stereo unspecified) | -3.62% |
| COCc1nccc(C2CCCN(Cc3ccccc3C#N)C2)n1 (stereo unspecified) | -6.99% |
| CN(Cc1cccc(Cl)c1)Cc1nnsc1Cl | -5.2% |
| Cc1cc(CN2CCN(C(C)c3nc(C(C)C)no3)CC2)no1 (stereo unspecified) | -7.52% |
| CNC(=O)CN1CCC(c2cc(OC)cc(OC)c2)C1 (stereo unspecified) | -7.18% |
| Cc1cccc(OC(C)C(=O)NCC2(N(C)C)CCCC2)c1 (stereo unspecified) | -8.19% |
| O=C(CN1CCN(c2ccccc2F)CC1)Nc1ccc(Cl)cn1 | 11.6% |
| Cc1cc(C)c(CNCC(O)c2ccc(F)c(F)c2)c(C)c1 (stereo unspecified) | -11.4% |
| Cc1n[nH]c(C)c1CNCC(O)c1cccc(Cl)c1 (stereo unspecified) | -13.1% |
| CC(C)c1nn(C)c(N(C)C)c1CNCc1cscn1 | -5.21% |
